Test results: ChEMBL document CHEMBL3045806, “Antimicrobial, analgesic, DPPH scavenging activities and molecular docking study of some 1,3,5-triaryl-2-pyrazolines” (2012)
≈ marks a conversion by molar mass, not a printed value.

Test system: Streptococcus pyogenes
Test: Antimicrobial activity against Streptococcus pyogenes after 24 hr by micro dilution method
Assay type: functional
Settings: not given
Compound Brc1ccc(C2=NN(c3ccccc3)C(c3ccc(Br)cc3)C2)cc1 (stereo unspecified) has an MIC of 40 µg/mL (≈ 87.7 µM). Fc1ccc(C2=NN(c3ccccc3)C(c3ccc(F)cc3)C2)cc1 (stereo unspecified) showed an MIC of 30 µg/mL (≈ 89.7 µM).

Test system: Mus musculus
Test: Analgesic activity in Mus musculus Swiss albino (mouse) assessed as protection against acetic acid-induced writhing at 100 mg/kg, po administered 1 hr prior challenge measured after 5 min of challenge for 20 min
Assay type: functional
Settings: not given
With CC(=O)Oc1ccccc1C(=O)O [ASPIRIN] the Activity was 58.25%. Compound Brc1ccc(C2=NN(c3ccccc3)C(c3ccc(Br)cc3)C2)cc1 (stereo unspecified) has an Activity of 53.75%. Work on Fc1ccc(C2=NN(c3ccccc3)C(c3ccc(F)cc3)C2)cc1 (stereo unspecified) yielded an Activity of 49.65%.

Test system: Bacillus subtilis
Test: Antimicrobial activity against Bacillus subtilis after 24 hr by micro dilution method
Assay type: functional
Settings: not given
Compound Brc1ccc(C2=NN(c3ccccc3)C(c3ccc(Br)cc3)C2)cc1 (stereo unspecified) has an MIC of 40 µg/mL (≈ 87.7 µM). Compound Fc1ccc(C2=NN(c3ccccc3)C(c3ccc(F)cc3)C2)cc1 (stereo unspecified) has an MIC of 30 µg/mL (≈ 89.7 µM).

Test system: Klebsiella pneumoniae
Test: Antimicrobial activity against Klebsiella pneumoniae at 40 ug/ml after 24 hr by agar well diffusion method
Assay type: functional
Settings: read-out: IZ
In the case of O=C(O)c1cn(C2CC2)c2cc(N3CCNCC3)c(F)cc2c1=O [CIPROFLOXACIN], the zone of inhibition at 40 µg/mL is reported as 24 mm. Compound Brc1ccc(C2=NN(c3ccccc3)C(c3ccc(Br)cc3)C2)cc1 (stereo unspecified) has a zone of inhibition at 40 µg/mL of 21 mm. For Fc1ccc(C2=NN(c3ccccc3)C(c3ccc(F)cc3)C2)cc1 (stereo unspecified), the zone of inhibition at 40 µg/mL was 22 mm.

Test system: Bacillus subtilis
Test: Antimicrobial activity against Bacillus subtilis at 40 ug/ml after 24 hr by agar well diffusion method
Assay type: functional
Settings: read-out: IZ
For O=C(O)c1cn(C2CC2)c2cc(N3CCNCC3)c(F)cc2c1=O [CIPROFLOXACIN], the zone of inhibition at 40 µg/mL was 24 mm. For Brc1ccc(C2=NN(c3ccccc3)C(c3ccc(Br)cc3)C2)cc1 (stereo unspecified), the zone of inhibition at 40 µg/mL was 23 mm. Fc1ccc(C2=NN(c3ccccc3)C(c3ccc(F)cc3)C2)cc1 (stereo unspecified) gave a zone of inhibition at 40 µg/mL of 21 mm.

Test system: Streptococcus pyogenes
Test: Antimicrobial activity against Streptococcus pyogenes at 40 ug/ml after 24 hr by agar well diffusion method
Assay type: functional
Settings: read-out: IZ
O=C(O)c1cn(C2CC2)c2cc(N3CCNCC3)c(F)cc2c1=O [CIPROFLOXACIN] gave a zone of inhibition at 40 µg/mL of 24 mm. In the case of Brc1ccc(C2=NN(c3ccccc3)C(c3ccc(Br)cc3)C2)cc1 (stereo unspecified), the zone of inhibition at 40 µg/mL is reported as 21 mm. Fc1ccc(C2=NN(c3ccccc3)C(c3ccc(F)cc3)C2)cc1 (stereo unspecified) gave a zone of inhibition at 40 µg/mL of 23 mm.

Test system: Aspergillus niger
Test: Antimicrobial activity against Aspergillus niger at 40 ug/ml after 72 hr by agar well diffusion method
Assay type: functional
Settings: read-out: IZ
Compound OC(Cn1cncn1)(Cn1cncn1)c1ccc(F)cc1F [FLUCONAZOLE] has a zone of inhibition at 40 µg/mL of 24 mm. Compound Brc1ccc(C2=NN(c3ccccc3)C(c3ccc(Br)cc3)C2)cc1 (stereo unspecified) has a zone of inhibition at 40 µg/mL of 20 mm. Fc1ccc(C2=NN(c3ccccc3)C(c3ccc(F)cc3)C2)cc1 (stereo unspecified) showed a zone of inhibition at 40 µg/mL of 20 mm.

Test system: not listed separately
Test: Antioxidant activity assessed as DPPH scavenging activity at 10 ug/ml after 30 min by UV-visible spectrophotometry
Assay type: functional
Settings: not given
With O=C1O[C@H]([C@@H](O)CO)C(O)=C1O the Activity was 69.2%. Compound Brc1ccc(C2=NN(c3ccccc3)C(c3ccc(Br)cc3)C2)cc1 (stereo unspecified) has an Activity of 40.3%. Compound Fc1ccc(C2=NN(c3ccccc3)C(c3ccc(F)cc3)C2)cc1 (stereo unspecified) has an Activity of 51.2%.

Test system: Aspergillus niger
Test: Antimicrobial activity against Aspergillus niger after 24 hr by micro dilution method
Assay type: functional
Settings: not given
Brc1ccc(C2=NN(c3ccccc3)C(c3ccc(Br)cc3)C2)cc1 (stereo unspecified) showed an MIC of 40 µg/mL (≈ 87.7 µM). Fc1ccc(C2=NN(c3ccccc3)C(c3ccc(F)cc3)C2)cc1 (stereo unspecified) gave an MIC of 40 µg/mL (≈ 120 µM).

Test system: Candida albicans
Test: Antimicrobial activity against Candida albicans at 40 ug/ml after 72 hr by agar well diffusion method
Assay type: functional
Settings: read-out: IZ
OC(Cn1cncn1)(Cn1cncn1)c1ccc(F)cc1F [FLUCONAZOLE] showed a zone of inhibition at 40 µg/mL of 23 mm. Brc1ccc(C2=NN(c3ccccc3)C(c3ccc(Br)cc3)C2)cc1 (stereo unspecified) gave a zone of inhibition at 40 µg/mL of 20 mm. In the case of Fc1ccc(C2=NN(c3ccccc3)C(c3ccc(F)cc3)C2)cc1 (stereo unspecified), the zone of inhibition at 40 µg/mL is reported as 20 mm.

Test system: Pseudomonas aeruginosa
Test: Antimicrobial activity against Pseudomonas aeruginosa at 40 ug/ml after 24 hr by agar well diffusion method
Assay type: functional
Settings: read-out: IZ
Work on O=C(O)c1cn(C2CC2)c2cc(N3CCNCC3)c(F)cc2c1=O [CIPROFLOXACIN] yielded a zone of inhibition at 40 µg/mL of 24 mm. With Brc1ccc(C2=NN(c3ccccc3)C(c3ccc(Br)cc3)C2)cc1 (stereo unspecified) the zone of inhibition at 40 µg/mL was 22 mm. In the case of Fc1ccc(C2=NN(c3ccccc3)C(c3ccc(F)cc3)C2)cc1 (stereo unspecified), the zone of inhibition at 40 µg/mL is reported as 20 mm.

Test system: Pseudomonas aeruginosa
Test: Antimicrobial activity against Pseudomonas aeruginosa after 24 hr by micro dilution method
Assay type: functional
Settings: not given
Work on Brc1ccc(C2=NN(c3ccccc3)C(c3ccc(Br)cc3)C2)cc1 (stereo unspecified) yielded an MIC of 30 µg/mL (≈ 65.8 µM). For Fc1ccc(C2=NN(c3ccccc3)C(c3ccc(F)cc3)C2)cc1 (stereo unspecified), the MIC was 40 µg/mL (≈ 120 µM).

Test system: Candida albicans
Test: Antimicrobial activity against Candida albicans after 24 hr by micro dilution method
Assay type: functional
Settings: not given
Brc1ccc(C2=NN(c3ccccc3)C(c3ccc(Br)cc3)C2)cc1 (stereo unspecified) showed an MIC of 20 µg/mL (≈ 43.8 µM). Compound Fc1ccc(C2=NN(c3ccccc3)C(c3ccc(F)cc3)C2)cc1 (stereo unspecified) has an MIC of 40 µg/mL (≈ 120 µM).

Test system: Klebsiella pneumoniae
Test: Antimicrobial activity against Klebsiella pneumoniae after 24 hr by micro dilution method
Assay type: functional
Settings: not given
Compound Brc1ccc(C2=NN(c3ccccc3)C(c3ccc(Br)cc3)C2)cc1 (stereo unspecified) has an MIC of 40 µg/mL (≈ 87.7 µM). For Fc1ccc(C2=NN(c3ccccc3)C(c3ccc(F)cc3)C2)cc1 (stereo unspecified), the MIC was 30 µg/mL (≈ 89.7 µM).
